Results published in US20230093099A1, “COMPOUNDS AND METHODS OF TREATING CANCERS” (CULLGEN (SHANGHAI), INC., priority 2019, published 2023).

test system: RS4;11 cells; assay: Cell viability assay (CellTiter-Glo) in RS4;11 cells; format: cell-based; details: Homo sapiens, 72 h; RS4;11 ALL cells treated for three days; read-out: cell viability inhibition IC50
Procedure, shortened: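 RS4;11 cells seeded at 5000 per well, exposed for 3 days to 8- or 12-point 3-fold serial dilutions. Viability read by CellTiter-Glo luminescence; IC50 fitted by nonlinear least-squares regression.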

| SMILES | IC50 |
| --- | --- |
| Cc1cnc(Nc2ccc(N3CCN(C(=O)CNc4ccc5c(c4)C(=O)N(C4CCC(=O)NC4=O)C5=O)CC3)cc2)nc1Nc1cccc(S(=O)(=O)NC(C)(C)C)c1 (stereo not shown) [JA-225, N-(tert-butyl)-3-((2-((4-(4-((2-(2,6-dioxopiperidin-3-yl)-1,3-dioxoisoindolin-5-yl)glycyl)piperazin-1-yl)phenyl)amino)-5-methylpyrimidin-4-yl)amino)benzenesulfonamide] | < 100 nM |
| O=C1CCC(N2C(=O)c3ccc(NCCCCCCCC(=O)N4CCC(n5cc(-c6cnc7cccc(-c8cc(F)c(CN9CCOCC9)c(F)c8)c7n6)cn5)CC4)cc3C2=O)C(=O)N1 (stereo not shown) [JA-187, 5-((8-(4-(4-(8-(3,5-difluoro-4-(morpholinomethyl)phenyl)quinoxalin-2-yl)-1H-pyrazol-1-yl)piperidin-1-yl)-8-oxooctyl)amino)-2-(2,6-dioxopiperidin-3-yl)isoindoline-1,3-dione] | < 100 nM |

same assay, conditions: Homo sapiens, 72 h; RS4;11 cells; cell viability, 3 days, CellTiter-Glo; read-out: IC50

| SMILES | IC50 |
| --- | --- |
| O=C1CCC(N2C(=O)c3cccc(NCCC(=O)N4CCC(n5cc(-c6cnc7cccc(-c8cc(F)c(CN9CCOCC9)c(F)c8)c7n6)cn5)CC4)c3C2=O)C(=O)N1 (stereo not shown) [JA-004, 4-[[3-[4-[4-[8-[3,5-Difluoro-4-(morpholinomethyl)phenyl]quinoxalin-2-yl]pyrazol-1-yl]-1-piperidyl]-3-oxo-propyl]amino]-2-(2,6-dioxo-3-piperidyl)isoindoline-1,3-dione] | 3350 nM |
| CS(=O)(=O)c1ccc(-c2cccc3nc(Nc4ccc(N5CCN(CC(=O)NCCNc6ccc7c(c6)C(=O)N(C6CCC(=O)NC6=O)C7=O)CC5)cc4)nn23)cc1 (stereo not shown) [JA-207, N-(2-((2-(2,6-Dioxopiperidin-3-yl)-1,3-dioxoisoindolin-5-yl)amino)ethyl)-2-(4-(4-((5-(4-(methylsulfonyl)phenyl)-[1,2,4]triazolo[1,5-a]pyridin-2-yl)amino)phenyl)piperazin-1-yl)acetamide] | 1240 nM |
| Cc1ncsc1-c1ccc(CNC(=O)[C@@H]2C[C@@H](O)CN2C(=O)[C@@H](NC(=O)CCCC(=O)N2CCC(n3cc(-c4cnc5cccc(-c6cc(F)c(CN7CCOCC7)c(F)c6)c5n4)cn3)CC2)C(C)(C)C)cc1 [JA-046, (2S,4R)-1-[(2S)-2-[[5-[4-[4-[8-[3,5-Difluoro-4-(morpholinomethyl)phenyl]quinoxalin-2-yl]pyrazol-1-yl]-1-piperidyl]-5-oxo-pentanoyl]amino]-3,3-dimethyl-butanoyl]-4-hydroxy-N-[[4-(4-methylthiazol-5-yl)phenyl]methyl]pyrrolidine-2-carboxamide] | > 10000 nM |
| Cc1cnc(Nc2ccc(N3CCN(C(=O)CNc4ccc5c(c4)C(=O)N(C4CCC(=O)NC4=O)C5=O)CC3)cc2)nc1Nc1cccc(S(=O)(=O)NC(C)(C)C)c1 (stereo not shown) [JA-225, N-(tert-butyl)-3-((2-((4-(4-((2-(2,6-dioxopiperidin-3-yl)-1,3-dioxoisoindolin-5-yl)glycyl)piperazin-1-yl)phenyl)amino)-5-methylpyrimidin-4-yl)amino)benzenesulfonamide] | 65.8 nM |
| CS(=O)(=O)c1ccc(-c2cccc3nc(Nc4ccc(N5CCN(C(=O)CCOCCOCCOCCNc6ccc7c(c6)C(=O)N(C6CCC(=O)NC6=O)C7=O)CC5)cc4)nn23)cc1 (stereo not shown) [JA-200, 2-(2,6-Dioxopiperidin-3-yl)-5-((2-(2-(2-(3-(4-(4-((5-(4-(methylsulfonyl)phenyl)-[1,2,4]triazolo[1,5-a]pyridin-2-yl)amino)phenyl)piperazin-1-yl)-3-oxopropoxy)ethoxy)ethoxy)ethyl)amino)isoindoline-1,3-dione] | 403 nM |
| O=C1CCC(N2C(=O)c3ccc(NCCOCCOCCOCCOCCC(=O)N4CCC(n5cc(-c6cnc7cccc(-c8cc(F)c(CN9CCOCC9)c(F)c8)c7n6)cn5)CC4)cc3C2=O)C(=O)N1 (stereo not shown) [JA-185, 5-((15-(4-(4-(8-(3,5-Difluoro-4-(morpholinomethyl)phenyl)quinoxalin-2-yl)-1H-pyrazol-1-yl)piperidin-1-yl)-15-oxo-3,6,9,12-tetraoxapentadecyl)amino)-2-(2,6-dioxopiperidin-3-yl)isoindoline-1,3-dione] | > 10000 nM |
| O=C1CCC(N2C(=O)c3cccc(NCCOCCOCCOCCOCCC(=O)N4CCC(n5cc(-c6cnc7cccc(-c8cc(F)c(CN9CCOCC9)c(F)c8)c7n6)cn5)CC4)c3C2=O)C(=O)N1 (stereo not shown) [JA-047, 4-[2-[2-[2-[2-[3-[4-[4-[8-[3,5-Difluoro-4-(morpholinomethyl)phenyl]quinoxalin-2-yl]pyrazol-1-yl]-1-piperidyl]-3-oxo-propoxy]ethoxy]ethoxy]ethoxy]ethylamino]-2-(2,6-dioxo-3-piperidyl)isoindoline-1,3-dione] | 3440 nM |
| O=C1CCC(N2C(=O)c3ccc(NCCCCCCCC(=O)N4CCC(n5cc(-c6cnc7cccc(-c8cc(F)c(CN9CCOCC9)c(F)c8)c7n6)cn5)CC4)cc3C2=O)C(=O)N1 (stereo not shown) [JA-187, 5-((8-(4-(4-(8-(3,5-difluoro-4-(morpholinomethyl)phenyl)quinoxalin-2-yl)-1H-pyrazol-1-yl)piperidin-1-yl)-8-oxooctyl)amino)-2-(2,6-dioxopiperidin-3-yl)isoindoline-1,3-dione] | 54.4 nM |
| Cc1cnc(Nc2ccc(N3CCN(CC(=O)NCCOCCOCCOCCNc4cccc5c4C(=O)N(C4CCC(=O)NC4=O)C5=O)CC3)cc2)nc1Nc1cccc(S(=O)(=O)NC(C)(C)C)c1 (stereo not shown) [JA-088, 2-(4-(4-((4-((3-(N-(tert-Butyl)sulfamoyl)phenyl)amino)-5-methylpyrimidin-2-yl)amino)phenyl)piperazin-1-yl)-N-(2-(2-(2-(2-((2-(2,6-dioxopiperidin-3-yl)-1,3-dioxoisoindolin-4-yl)amino)ethoxy)ethoxy)ethoxy)ethyl)acetamide] | 369 nM |
| Cc1ncsc1-c1ccc(CNC(=O)[C@@H]2C[C@@H](O)CN2C(=O)[C@@H](NC(=O)CCOCCOCCOCCNC(=O)CN2CCC(n3cc(-c4cnc5cccc(-c6cc(F)c(CN7CCOCC7)c(F)c6)c5n4)cn3)CC2)C(C)(C)C)cc1 [JA-151, (2S,4R)-1-((S)-17-(tert-Butyl)-1-(4-(4-(8-(3,5-difluoro-4-(morpholinomethyl)phenyl)quinoxalin-2-yl)-1H-pyrazol-1-yl)piperidin-1-yl)-2,15-dioxo-6,9,12-trioxa-3,16-diazaoctadecan-18-oyl)-4-hydroxy-N-(4-(4-methylthiazol-5-yl)benzyl)pyrrolidine-2-carboxamide] | > 10000 nM |
| O=C1CCC(N2C(=O)c3ccc(C#CCCCCCN4CCC(n5cc(-c6cnc7cccc(-c8cc(F)c(CN9CCOCC9)c(F)c8)c7n6)cn5)CC4)cc3C2=O)C(=O)N1 (stereo not shown) [JA-264, 5-(7-(4-(4-(8-(3,5-difluoro-4-(morpholinomethyl)phenyl)quinoxalin-2-yl)-1H-pyrazol-1-yl)piperidin-1-yl)hept-1-yn-1-yl)-2-(2,6-dioxopiperidin-3-yl)isoindoline-1,3-dione] | 98.6 nM |
| O=C1CCC(N2C(=O)c3ccc(OCCCCCC(=O)N4CCC(n5cc(-c6cnc7cccc(-c8cc(F)c(CN9CCOCC9)c(F)c8)c7n6)cn5)CC4)cc3C2=O)C(=O)N1 (stereo not shown) [JA-260, 5-((6-(4-(4-(8-(3,5-Difluoro-4-(morpholinomethyl)phenyl)quinoxalin-2-yl)-1H-pyrazol-1-yl)piperidin-1-yl)-6-oxohexyl)oxy)-2-(2,6-dioxopiperidin-3-yl)isoindoline-1,3-dione] | 164 nM |
| Cc1cnc(Nc2ccc(N3CCN(CC(=O)NCCCCCCCCNc4cccc5c4C(=O)N(C4CCC(=O)NC4=O)C5=O)CC3)cc2)nc1Nc1cccc(S(=O)(=O)NC(C)(C)C)c1 (stereo not shown) [JA-096, 2-(4-(4-((4-((3-(N-(tert-Butyl)sulfamoyl)phenyl)amino)-5-methylpyrimidin-2-yl)amino)phenyl)piperazin-1-yl)-N-(8-((2-(2,6-dioxopiperidin-3-yl)-1,3-dioxoisoindolin-4-yl)amino)octyl)acetamide] | 158 nM |
| Cc1ncsc1-c1ccc(CNC(=O)[C@@H]2C[C@@H](O)CN2C(=O)[C@@H](NC(=O)CCOCCOCCOCCOCCOCCNC(=O)CN2CCN(c3ccc(Nc4nc5cccc(-c6ccc(S(C)(=O)=O)cc6)n5n4)cc3)CC2)C(C)(C)C)cc1 [JA-138, (2S,4R)-1-((S)-23-(tert-Butyl)-1-(4-(4-((5-(4-(methylsulfonyl)phenyl)-[1,2,4]triazolo[1,5-a]pyridin-2-yl)amino)phenyl)piperazin-1-yl)-2,21-dioxo-6,9,12,15,18-pentaoxa-3,22-diazatetracosan-24-oyl)-4-hydroxy-N-(4-(4-methylthiazol-5-yl)benzyl)pyrrolidine-2-carboxamide] | > 10000 nM |
